The values below come from ChEMBL document CHEMBL5537186 (J Med Chem, 2024).

Values after ≈ are worked out from the molar mass of the structure shown.

For orientation: logD means lipophilicity at a set pH, counting ionised and neutral species.

Data set [1] is described as follows: Metabolic stability in human hepatocytes assessed as compound remaining measured after 60 mins. It counts as ADME, cell-based, Hepatocyte. Particulars: read-out: Stability.
A short description of data set [2]: Lipophilicity, logD of compound at pH 7.4. It counts as physicochemical. As to conditions: buffer.
A short description of data set [3]: Kinetic aqueous solubility of compound at pH 7.4. It counts as physicochemical. Particulars: read-out: Kinetic_solubility.

In the case of `Cc1ccc(NC(=O)N2CC[C@@H](CC(F)(F)F)C2)cc1-c1cc(O[C@@H](C)CO)nc(N2CCOCC2)c1`, in data set [1], the remaining at 1 h stood at 45%. For the same molecule, in data set [2], the logD was found to be 3.84. For the same molecule, in data set [3], the solubility kinetic was found to be 56 µM (≈ 29.3 µg/mL).
Regarding `Cc1ccc(NC(=O)N2CC[C@@H](CC(F)(F)F)C2)cc1-c1cc(OCC(C)(C)O)nc(N2CCOCC2)c1`, the remaining at 1 h in data set [1] was determined as 62%. The logD in data set [2] worked out at 3.86. Moreover, the solubility kinetic in data set [3] came out at 15 µM (≈ 8.05 µg/mL).
Consider `Cc1ccc(NC(=O)N2CC[C@H](CC(F)(F)F)C2)cc1-c1cc(OCCO)nc(N2CCOCC2)c1`, for which the logD in data set [2] amounted to 3.67. Further, the solubility kinetic in data set [3] came to 43 µM (≈ 21.9 µg/mL).
